Values joined by “and” are separate entries in the source; they are usually repeats but may differ in a detail not shown here. Equal entries are not always repeated. Where two headings read alike, the source gives them in different places.
Key:
[1] = test system: B. cinerea on cherry tomatoes; test: In vivo antifungal bioassay on cherry tomatoes; parameters: species or system Botrytis cinerea; details: 20 mg/L; for Diameter of infection (cm) 4 days: 4 days after treatment; for Diameter of infection (cm) 7 days: 7 days after treatment
Valsa malicola (V. mali) = test: In vitro fungicidal activity, mycelial (hyphae) growth inhibition on PDA; assay type: cell-based
[2] = test system: Botrytis cinerea (B. cinerea); test: as above; assay type: cell-based
[3] = test system: Pyricularia oryzae (P. oryzae); test: microbe, parasite or virus in culture; assay type: cell-based; details: for Inhibition Rate at 50 mg/L (%) P. o: mean ± SD of three replicates
[4] = test system: Alternaria solani (A. solani); test: In vitro fungicidal activity, mycelial (hyphae) growth inhibition on PDA; assay type: cell-based
[5] = test system: Rhizoctonia solani (R. solani); test: microbe, parasite or virus in culture; assay type: cell-based
[6] = test system: Fusarium graminearum (F. graminearum); test: microbe, parasite or virus in culture; assay type: cell-based; details: for Inhibition Rate at 50 mg/L (%) F. g: mean ± SD of three replicates
[7] = test system: Phomopsis capsici (P. capsica); test: In vitro fungicidal activity, mycelial (hyphae) growth inhibition on PDA; assay type: cell-based
[8] = test system: Pythium aphanidermatum (P. aphanidermatum); test: as above; assay type: cell-based
[9] = Solubility classification in representative solvents (Vogel protocol); assay type: physicochemical; details: 25 °C, test amount 0.1 g; for solubility: thermodynamic from solid
Method: This investigation details how to determine the solubility of terbinafine and its salts, guided by the experimental protocol in Vogel’s Textbook of Practical Organic Chemistry. Based on the Snyder polarity index values of the representative solvents, each solvent was tested for its ability to dissolve the target analytes. The solubility data was classified into three categories based on the observed extent of dissolution. […] The experimental procedures were performed at 25 °C and under ambient pressure.

[10] = Solubility of saturated solutions by HPLC at 25 °C; assay type: physicochemical; details: for solubility at 15 min: thermodynamic from solid
Description: The filtrate was then passed through a 0.22 μm nylon membrane filter and subjected to HPLC analysis. Based on Wang’s report about the chromatographic parameters, modifications to the mobile phase ratio were made. The replicability of the results was ensured by performing each measurement in triplicate.

[11] = Surface tension of saturated aqueous solutions, Du Noüy ring method; details: 25 °C
Method: This method involved adjusting the stage positioning of the solvent container such that a platinum ring could be immersed below the liquid interface or pulled through the meniscus. […] The maximum force was recorded as the surface tension of the solvent. To ensure accuracy, the platinum ring was thoroughly cleaned between each measurement through rinsing with double-distilled water and wiping it dry. The surface tension determination was performed in quadruplicate.

[12] = Fusarium graminearum, F. graminearum
[13] = read-out: EC50 (μmol/L), P. oryzae
[14] = read-out: EC50 (μmol/L), F. graminearum
[15] = DMSO, organic solvent or mixture, Snyder polarity index 6.5, read-out: Solubility in DMSO
[16] = acetone, organic solvent or mixture, Snyder polarity index 5.1, read-out: Solubility in Acetone
[17] = acetonitrile, organic solvent or mixture, Snyder polarity index 6.2, read-out: Solubility in Acetonitrile
[18] = chloroform, organic solvent or mixture, Snyder polarity index 4.1, read-out: Solubility in Chloroform
[19] = ethyl acetate, organic solvent or mixture, Snyder polarity index 4.3, read-out: Solubility in Ethyl acetate
[20] = isopropanol, organic solvent or mixture, read-out: Solubility in Isopropanol
[21] = methanol, organic solvent or mixture, Snyder polarity index 6.6, read-out: Solubility in Methanol
[22] = n-hexane, organic solvent or mixture, Snyder polarity index 0.0, read-out: Solubility in n-Hexane
[23] = toluene, organic solvent or mixture, Snyder polarity index 2.3, read-out: Solubility in Toluene
[24] = water, Snyder polarity index 9.0, read-out: Solubility in Water
[25] = isopropanol, organic solvent or mixture, Table S1, read-out: Solubility, Isopropanol
[26] = n-hexane, organic solvent or mixture, Table S1, read-out: Solubility, n-Hexane
[27] = water, Table S1, read-out: Solubility, Water

## COC(=O)Nc1nc2ccccc2[nH]1 [Carbendazim, reference compound]
[1]
  Diameter of infection (cm) 4 days: 0.85 cm
  Diameter of infection (cm) 7 days: 0.92 cm

## COC(=O)N(OC)c1ccccc1COc1ccn(-c2ccc(Cl)cc2)n1 [Pyraclostrobin, reference compound]
Valsa malicola (V. mali)
  EC50: 0.79 µg/mL and 2.02 µM
[2]; Botrytis cinerea
  EC50: 0.12 µg/mL and 310 nM
[3]; Pyricularia oryzae, P. oryzae
  EC50: 0.6 µg/mL and 1.54 µM
[4]; Alternaria solani
  EC50: 0.23 µg/mL and 590 nM
[5]; Rhizoctonia solani
  EC50: 0.07 µg/mL and 190 nM
[6]; [12]
  EC50: 1.43 µg/mL and 3.68 µM
[1]
  Diameter of infection (cm) 4 days: 0.71 cm
  Diameter of infection (cm) 7 days: 0.92 cm

## CN(C/C=C/C#CC(C)(C)C)Cc1cccc2ccccc12.O=C(O)c1ccccc1O [TIS 1, (E)-N,6,6-trimethyl-N-(naphthalen-1-ylmethyl)hept-2-en-4-yn-1-aminium 2-hydroxybenzoate]
Valsa malicola (V. mali)
  EC50: 2.24 µg/mL
  Inhibition Rate at 50 mg/L (%) V. m: 100 ± 0%
Valsa malicola (V. mali); read-out: EC50 (μmol/L)
  EC50: 5.21 µmol/L
[2]
  Inhibition Rate at 50 mg/L (%) B. c: 100 ± 0%
[2]; Botrytis cinerea
  EC50: 0.14 µg/mL
[2]; read-out: EC50 (μmol/L)
  EC50: 0.32 µmol/L
[3]
  Inhibition Rate at 50 mg/L (%) P. o: 99.05 ± 0.21%
[3]; Pyricularia oryzae, P. oryzae
  EC50: 0.47 µg/mL
[3]; [13]
  EC50: 1.1 µmol/L
[7]; Diaporthe capsici, 50 mg/L, read-out: Inhibition Rate at 50 mg/L (%) P. c
  inhibition at 50 µg/mL: 47 ± 1.18%
[4]
  Inhibition Rate at 50 mg/L (%) A. s: 100 ± 0%
[4]; Alternaria solani
  EC50: 0.13 µg/mL
[4]; read-out: EC50 (μmol/L)
  EC50: 0.3 µmol/L
[5]
  Inhibition Rate at 50 mg/L (%) R. s: 84.79 ± 1.25%
[5]; Rhizoctonia solani
  EC50: 2.49 µg/mL
[5]; read-out: EC50 (μmol/L)
  EC50: 5.81 µmol/L
[6]
  Inhibition Rate at 50 mg/L (%) F. g: 100 ± 0%
[6]; [12]
  EC50: 0.1 µg/mL
[6]; [14]
  EC50: 0.23 µmol/L
[8]; Pythium aphanidermatum, 50 mg/L, read-out: Inhibition Rate at 50 mg/L (%) P. a
  inhibition at 50 µg/mL: 74.61 ± 0.38%
[9]; [15]
  solubility: > 100 mg/mL
[9]; [16]
  solubility: > 100 mg/mL
[9]; [17]
  solubility: > 100 mg/mL
[9]; [18]
  solubility: > 100 mg/mL
[9]; [19]
  solubility: > 100 mg/mL
[9]; [20]
  solubility: < 33.3 mg/mL
[9]; [21]
  solubility: > 100 mg/mL
[9]; [22]
  solubility: < 33.3 mg/mL
[9]; [23]
  solubility: > 100 mg/mL
[9]; [24]
  solubility: < 33.3 mg/mL
[10]; [25]
  solubility at 15 min: 5.18 µM
[10]; [26]
  solubility at 15 min: 0.502 µM
[10]; [27]
  solubility at 15 min: 284 µM
[1]
  Diameter of infection (cm) 4 days: 0.78 cm
  Diameter of infection (cm) 7 days: 1.10 cm
[11]
  surface tension of the saturated aqueous solution: 58.33 mN·m^−1

## CN(C/C=C/C#CC(C)(C)C)Cc1cccc2ccccc12.O=C(O)C1C(C(=O)O)[C@@]2(Cl)C(Cl)=C(Cl)[C@]1(Cl)C2(Cl)Cl [TIS 2, (E)-N,6,6-trimethyl-N-(naphthalen-1-ylmethyl)hept-2-en-4-yn-1-aminium (1S,4R)-3-carboxy-1,4,5,6,7,7-hexachlorobicyclo [2.2.1]hept-5-ene-2-carboxylate]
Valsa malicola (V. mali); mean ± SD of three replicates
  Inhibition Rate at 50 mg/L (%) V. m: 100 ± 0%
Valsa malicola (V. mali); V. mali
  EC50 (mg/L): 4.28 mg/L
Valsa malicola (V. mali); V. mali, read-out: EC50 (μmol/L)
  EC50: 6.29 µmol/L
[2]; mean ± SD of three replicates
  Inhibition Rate at 50 mg/L (%) B. c: 100 ± 0%
[2]; B. cinerea
  EC50 (mg/L): 0.25 mg/L
[2]; B. cinerea, read-out: EC50 (μmol/L)
  EC50: 0.37 µmol/L
[3]
  Inhibition Rate at 50 mg/L (%) P. o: 96.09 ± 0.36%
[3]; P. oryzae
  EC50 (mg/L): 0.88 mg/L
[3]; P. oryzae, read-out: EC50
  EC50: 1.29 µmol/L
[7]; mean ± SD of three replicates
  Inhibition Rate at 50 mg/L (%) P. c: 43.85 ± 1.61%
[4]; mean ± SD of three replicates
  Inhibition Rate at 50 mg/L (%) A. s: 98.8 ± 0%
[4]; A. solani
  EC50 (mg/L): 0.18 mg/L
[4]; A. solani, read-out: EC50 (μmol/L)
  EC50: 0.27 µmol/L
[5]
  EC50 (mg/L): 3.32 mg/L
  Inhibition Rate at 50 mg/L (%) R. s: 80.75 ± 0.72%
[5]; read-out: EC50
  EC50: 4.88 µmol/L
[6]
  Inhibition Rate at 50 mg/L (%) F. g: 100 ± 0%
[6]; F. graminearum
  EC50 (mg/L): 0.16 mg/L
[6]; F. graminearum, read-out: EC50
  EC50: 0.24 µmol/L
[8]; mean ± SD of three replicates
  Inhibition Rate at 50 mg/L (%) P. a: 69.65 ± 1.7%
[9]; Snyder polarity index 0.0
  Solubility in n-Hexane: − (“−” means insoluble in a 3 mL solvent, poor solubility)
[9]; Snyder polarity index 2.3
  Solubility in Toluene: − (“−” means insoluble in a 3 mL solvent, poor solubility)
[9]; Snyder polarity index 4.1
  Solubility in Chloroform: − (“−” means insoluble in a 3 mL solvent, poor solubility)
[9]; Snyder polarity index 4.3
  Solubility in Ethyl acetate: − (“−” means insoluble in a 3 mL solvent, poor solubility)
  Solubility in Isopropanol: − (“−” means insoluble in a 3 mL solvent, poor solubility)
[9]; Snyder polarity index 5.1
  Solubility in Acetone: − (“−” means insoluble in a 3 mL solvent, poor solubility)
[9]; Snyder polarity index 6.2
  Solubility in Acetonitrile: − (“−” means insoluble in a 3 mL solvent, poor solubility)
[9]; Snyder polarity index 6.5
  Solubility in DMSO: + (“+” means soluble in a 1 mL solvent, good solubility)
[9]; Snyder polarity index 6.6
  Solubility in Methanol: − (“−” means insoluble in a 3 mL solvent, poor solubility)
[9]; Snyder polarity index 9.0
  Solubility in Water: − (“−” means insoluble in a 3 mL solvent, poor solubility)
[10]; Table S1
  Solubility, Acetone: 8.23 µM
  Solubility, Acetonitrile: 0.155 µM
  Solubility, Chloroform: 1.39 µM
  Solubility, Ethyl acetate: 0.456 µM
  Solubility, Isopropanol: 0.0703 µM
  Solubility, Methanol: 0.0554 µM
  Solubility, Toluene: 0.366 µM
  Solubility, Water: 5.62 µM
  Solubility, n-Hexane: 0.0221 µM
[11]
  surface tension of the saturated aqueous solution: 62.78 mN·m^−1

## CN(C/C=C/C#CC(C)(C)C)Cc1cccc2ccccc12.O=C(O)/C=C\C(=O)O [TIS 3, (E)-N,6,6-trimethyl-N-(naphthalen-1-ylmethyl)hept-2-en-4-yn-1-aminium (Z)-3-carboxyacrylate]
Valsa malicola (V. mali)
  EC50: 2.03 µg/mL
  Inhibition Rate at 50 mg/L (%) V. m: 100 ± 0%
Valsa malicola (V. mali); read-out: EC50 (μmol/L)
  EC50: 4.98 µmol/L
[2]
  Inhibition Rate at 50 mg/L (%) B. c: 100 ± 0%
[2]; Botrytis cinerea
  EC50: 0.13 µg/mL
[3]
  Inhibition Rate at 50 mg/L (%) P. o: 99.29 ± 0%
[3]; Pyricularia oryzae, P. oryzae
  EC50: 0.58 µg/mL
[3]; [13]
  EC50: 1.41 µmol/L
[7]
  Inhibition Rate at 50 mg/L (%) P. c: 33.16 ± 2.52%
[4]
  Inhibition Rate at 50 mg/L (%) A. s: 100 ± 0%
[4]; Alternaria solani
  EC50: 0.15 µg/mL
[4]; read-out: EC50 (μmol/L)
  EC50: 0.36 µmol/L
[5]
  better activity than terbinafine: 24%
  Inhibition Rate at 50 mg/L (%) R. s: 83.4 ± 0.35%
[5]; Rhizoctonia solani
  EC50: 1.84 µg/mL
[5]; read-out: EC50 (μmol/L)
  EC50: 4.51 µmol/L
[6]
  Inhibition Rate at 50 mg/L (%) F. g: 100 ± 0%
[6]; [12]
  EC50: 0.1 µg/mL
[6]; [14]
  EC50: 0.24 µmol/L
[8]
  Inhibition Rate at 50 mg/L (%) P. a: 69.54 ± 0%
[9]; [15]
  solubility: > 100 mg/mL
[9]; [16]
  solubility: < 33.3 mg/mL
[9]; [17]
  solubility: < 33.3 mg/mL
[9]; [18]
  solubility: > 100 mg/mL
[9]; [19]
  solubility: < 33.3 mg/mL
[9]; [20]
  solubility: < 33.3 mg/mL
[9]; [21]
  solubility: > 100 mg/mL
[9]; [22]
  solubility: < 33.3 mg/mL
[9]; [23]
  solubility: < 33.3 mg/mL
[9]; [24]
  solubility: < 33.3 mg/mL
[10]; acetone, organic solvent or mixture, Table S1, read-out: Solubility, Acetone
  solubility at 15 min: 3.76 µM
[10]; acetonitrile, organic solvent or mixture, Table S1, read-out: Solubility, Acetonitrile
  solubility at 15 min: 1490 µM
[10]; ethyl acetate, organic solvent or mixture, Table S1, read-out: Solubility, Ethyl acetate
  solubility at 15 min: 485 µM
[10]; [25]
  solubility at 15 min: 3.06 µM
[10]; [26]
  solubility at 15 min: 0.234 µM
[10]; toluene, organic solvent or mixture, Table S1, read-out: Solubility, Toluene
  solubility at 15 min: 42.1 µM
[10]; [27]
  solubility at 15 min: 616 µM
[1]
  Diameter of infection (cm) 4 days: 0.82 cm
  Diameter of infection (cm) 7 days: 1.02 cm
[11]
  surface tension of the saturated aqueous solution: 61.48 mN·m^−1

Source: paper PMC10303384, “The Effect of Terbinafine and Its Ionic Salts on Certain Fungal Plant Pathogens” (Molecules, 2023)
